The numbers were not newly measured in paper PMC8491460 (Pharmacology Research & Perspectives, 2021), which cites them from elsewhere.

Counter-ions that a name gives are not always drawn.

For data set [1], the system named is patients with metastatic melanoma.
In data set [2] the test system is NK cells.
For data set [3], the system named is patients with moderate to severe atopic dermatitis. The settings on record: 30 mg administered orally for 8 weeks.
The subject of data set [4] is Colorectal cancer patients. The settings on record: 8.8 or 1.2 g per day oral, admission to 10th postoperative day.
Data set [5] concerns patients with advanced RCC. The settings on record: IFNα 3–6 MIU s.c. thrice/week, 800 mg cimetidine, 10 mg meloxicam, 4 mg candesartan or perindopril.
Data set [6] deals with EL4 lymphoma.
For data set [7], the system named is BN‐175 tumors. The note with it: 40 µg melphalan, 1 mg histamine, and 50 µg IL‐2 in 5 ml perfusate.
For data set [8], the system named is patients with high‐grade non‐Hodgkin lymphoma. The note with it: 3 MIU IFNα, 1.5 mg/kg IL‐2, and 0.5 mg histamine s.c. 1–2 times daily, 5 days a week.
Data set [9] has as its system human 1205Lu melanoma tumor. The note with it: 1 mg/kg daily s.c. for 30 days.
The test system of data set [10] is CD11b^+Gr1^+ immature myeloid cells. The settings on record: 0.8 mg/kg i.p. per day for 20 days.
For data set [11], the system named is MC‐38 colon carcinoma.
In data set [12] the test system is patients with metastatic RCC.
Data set [13] relates to murine EL4 lymphomas. The settings on record: 75 mg/kg i.p. three times a week for 2 weeks.
For data set [14] the following is noted: clinical trials, adjuvant to IL‐2 immunotherapy.
Data set [15] concerns breast cancer models E0771 and 4T1. The note with it: 8 mg/kg in drinking water; E0771 and 4T1, respectively.
Data set [16] has as its system rheumatoid arthritis. The settings on record: 100 mg once daily orally for 12 weeks, phase IIa.
Data set [17] concerns rheumatoid arthritis. The settings on record: phase IIb trial.
In data set [18] the test system is patients with moderate‐to‐severe psoriasis. The note with it: 30 and 60 mg per day.
Data set [19] relates to uncontrolled, eosinophilic asthma. The settings on record: 30 mg per day for 24 weeks.
[20] abbreviates: histamine 75 µg/mouse i.p., 100–240 µg/mouse of each antibody.
Where [21] appears, read: histamine 1500 µg/mouse with anti‐PD‐1/anti‐PD‐L1.
The mark [22] stands for this setting: histamine and anti‐PD‐1/anti‐PD‐L1.

Turning to `CN(C)/N=N/c1[nH]cnc1C(N)=O` [Dacarbazine], the overall response rates in data set [1] is listed as 16%.
As for `NCCc1c[nH]cn1` [HDC, histamine dihydrochloride], the “ROS production by M4/M5 cells and apoptosis in adjacent NK cells” value in data set [2] was “inhibited”.
Regarding `CN[C@@H]1CCN(c2cc(NCC3CC3)nc(N)n2)C1` [adriforant], in data set [3], the eczema and severity entry is “improved eczema and severity”; the tolerability result was “well tolerated”.
As to `CN/C(=N/CCSCc1nc[nH]c1C)NC#N` [cimetidine], the “CD19^+ B cells in blood samples” value in data set [4] was “elevated levels”. Besides, the responses result in data set [5] is reported as “favorable responses”.
Take `NCCc1c[nH]cn1` [histamine, 2‐(4‐imidazolyl)‐ethylamine]: the “accumulation and immunosuppressive features of MDSCs” value in data set [6] (75 µg/mouse i.p. three times a week) is given as “diminished”. Further, the tumor growth result in data set [6] (75 µg/mouse i.p. three times a week starting 1 day before tumor inoculation) was “diminished tumor growth”. Also, the “expression of PD‐L1 on MDSCs or PD‐1 on CD8^+ T cells” value in [6] (EL4 tumor‐bearing mice, histamine) is listed as “did not alter”. Further, in data set [6] (setting [20]), the “anti‐tumor efficacy of immune checkpoint blockade with anti‐PD‐1/anti‐PD‐L1” value is reported as “improved”. Further, in data set [6] (setting [21]), the “fraction of CD8^+ T cells displaying an effector phenotype” value was “slightly increased”; the “intra‐tumoral proportion of MDSCs, or T and NK cells” value is “did not affect”. In data set [7], the response result is “no improved response”. Moreover, the “frequency of cytokine‐producing T cells and NK‐cell‐mediated cytotoxicity” value in data set [8] is reported as “significant increases”. Further, in data set [9], the “neutrophil‐to‐lymphocyte ratio infiltrate” value is “decreased”; the “tumor growth and neovascular formation” value is “reduced”. For the same molecule, the “ability of immature myeloid cells to support the growth of tumor allografts” value in data set [10] is given as “suppressed”. Moreover, the “differentiation of CD11b^+Gr1^+ immature myeloid cells” value in data set [10] (through H1 receptor and H2 receptor) was “induced their terminal differentiation into monocytes and neutrophils”. In [11] (setting [20]), the “anti‐tumor efficacy of immune checkpoint blockade with anti‐PD‐1/anti‐PD‐L1” value is reported as “improved”. Besides, in data set [11] (histamine 1500 µg/mouse i.p. 3 times a week and anti‐PD‐1/anti‐PD‐L1), the “MC‐38 tumor growth” value is recorded as “strongly reduced”. Besides, in data set [11] (setting [22]), the “fraction of CD8^+ T cells with an effector phenotype” value is given as “raised significantly”, the “fraction of intra‐tumoral CD8^+ T cells” value is “tending to increase”, the “intra‐tumoral NK cells” value was “decreased” and the “percentage of intra‐tumoral CD4^+ T cells” value is given as “not altered”. Also, in data set [12] (1 mg HDC s.c. b.i.d. with IFNα 3 MIU and IL‐2 2.4 MIU/m^2), the tolerability result was “well tolerated”. Also, the “TILs, blood leukocyte count, f‐chain expression, or cytotoxicity” value in [12] (similar treatment scheme) is listed as “did not influence”. In addition, the “tumor‐infiltrating DCs” value in [13] (WT mice) is “increased”. Further, the “growth of murine EL4 lymphomas” value in data set [13] (WT mice but not NOX2‐deficient mice) was “reduced”. The tolerability result in [14] is recorded as “generally well tolerated”.
Consider `CNC(=C[N+](=O)[O-])NCCSCc1ccc(CN(C)C)o1` [ranitidine], for which, in data set [15], the “primary tumor growth and metastasis” value is “consistently reduced”.
For `Cc1cc(C)c2nc(-c3cnc(NCCCC4CCN(C)CC4)nc3C)[nH]c2c1` [toreforant], the “signs and symptoms of rheumatoid arthritis” value in data set [16] is “reduced”. Besides, in [17], the “confirmation of the reduction of signs and symptoms” value is listed as “could not be confirmed”. Also, in data set [18], the response versus placebo entry is “greater response than placebo”. Further, the “improvement of uncontrolled, eosinophilic asthma” value in data set [19] is reported as “failed to improve”.
In the case of “IL‐2: interleukin‐2 immunotherapeutic cytokine”, the overall response rates in data set [1] was 16%.
